# Laboratory results reported in PubChem BioAssay (NCI).
#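 All cell lines were grown in 96-well plates and treated with compound for 48 hours. TGI: total growth inhibition.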
# Assays:
# Experiment in all cases: NCI tumour cell line growth inhibition, 48 h
# 786-0 renal = test system: 786-0 renal
# A498 renal = test system: A498 renal
# A549 NSCLC = test system: A549 NSCLC
# ACHN renal = test system: ACHN renal
# BT-549 breast = test system: BT-549 breast
# CAKI-1 renal = test system: CAKI-1 renal
# CCRF-CEM leukemia = test system: CCRF-CEM leukemia
# COLO 205 colon = test system: COLO 205 colon
# DU-145 prostate = test system: DU-145 prostate
# EKVX NSCLC = test system: EKVX NSCLC
# HCT-116 colon = test system: HCT-116 colon
# HCT-15 colon = test system: HCT-15 colon
# HL-60(TB) leukemia = test system: HL-60(TB) leukemia
# HOP-62 NSCLC = test system: HOP-62 NSCLC
# HS 578T breast = test system: HS 578T breast
# HT29 colon = test system: HT29 colon
# IGROV1 ovarian = test system: IGROV1 ovarian
# K-562 leukemia = test system: K-562 leukemia
# KM12 colon = test system: KM12 colon
# LOX IMVI melanoma = test system: LOX IMVI melanoma
# M14 melanoma = test system: M14 melanoma
# MALME-3M melanoma = test system: MALME-3M melanoma
# MCF7 breast = test system: MCF7 breast
# MDA-MB-231 breast = test system: MDA-MB-231 breast
# MDA-MB-435 = test system: MDA-MB-435
# MDA-N = test system: MDA-N
# MOLT-4 leukemia = test system: MOLT-4 leukemia
# NCI-H226 lung = test system: NCI-H226 lung
# NCI-H23 lung = test system: NCI-H23 lung
# NCI-H522 lung = test system: NCI-H522 lung
# NCI/ADR-RES ovarian = test system: NCI/ADR-RES ovarian
# OVCAR-5 ovarian = test system: OVCAR-5 ovarian
# OVCAR-8 ovarian = test system: OVCAR-8 ovarian
# PC-3 prostate = test system: PC-3 prostate
# RPMI-8226 leukemia = test system: RPMI-8226 leukemia
# RXF 393 renal = test system: RXF 393 renal
# SF-268 CNS = test system: SF-268 CNS
# SF-295 CNS = test system: SF-295 CNS
# SF-539 CNS = test system: SF-539 CNS
# SK-MEL-2 melanoma = test system: SK-MEL-2 melanoma
# SK-MEL-28 melanoma = test system: SK-MEL-28 melanoma
# SK-MEL-5 melanoma = test system: SK-MEL-5 melanoma
# SK-OV-3 ovarian = test system: SK-OV-3 ovarian
# SN12C renal = test system: SN12C renal
# SNB-19 CNS = test system: SNB-19 CNS
# SR leukemia = test system: SR leukemia
# SW-620 colon = test system: SW-620 colon
# T-47D breast = test system: T-47D breast
# TK-10 renal = test system: TK-10 renal
# U251 CNS = test system: U251 CNS
# UACC-257 melanoma = test system: UACC-257 melanoma
# UACC-62 melanoma = test system: UACC-62 melanoma
# UO-31 renal = test system: UO-31 renal
# HCC-2998 colon = test system: HCC-2998 colon
# NCI-H460 lung = test system: NCI-H460 lung
# OVCAR-3 ovarian = test system: OVCAR-3 ovarian
# OVCAR-4 ovarian = test system: OVCAR-4 ovarian
# SNB-75 CNS = test system: SNB-75 CNS
smiles,measurement,setting,value
CC1(C)OC2C(=O)C=C(COCc3ccccc3)C2O1 (configuration not stated),TGI,786-0 renal,> 100 µM
same,TGI,A498 renal,> 100 µM
same,TGI,A549 NSCLC,> 100 µM
same,TGI,ACHN renal,> 100 µM
same,TGI,BT-549 breast,39.8 µM
same,TGI,CAKI-1 renal,> 100 µM
same,TGI,CCRF-CEM leukemia,> 100 µM
same,TGI,COLO 205 colon,41 µM
same,TGI,DU-145 prostate,> 100 µM
same,TGI,EKVX NSCLC,> 100 µM
same,TGI,HCT-116 colon,54.3 µM
same,TGI,HCT-15 colon,> 100 µM
same,TGI,HL-60(TB) leukemia,77.1 µM
same,TGI,HOP-62 NSCLC,79 µM
same,TGI,HS 578T breast,> 100 µM
same,TGI,HT29 colon,> 100 µM
same,TGI,IGROV1 ovarian,53.5 µM
same,TGI,K-562 leukemia,> 100 µM
same,TGI,KM12 colon,51.1 µM
same,TGI,LOX IMVI melanoma,53.5 µM
same,TGI,M14 melanoma,92.9 µM
same,TGI,MALME-3M melanoma,45 µM
same,TGI,MCF7 breast,> 100 µM
same,TGI,MDA-MB-231 breast,> 100 µM
same,TGI,MDA-MB-435,71.2 µM
same,TGI,MDA-N,> 100 µM
same,TGI,MOLT-4 leukemia,> 100 µM
same,TGI,NCI-H226 lung,61.5 µM
same,TGI,NCI-H23 lung,59.4 µM
same,TGI,NCI-H522 lung,38 µM
same,TGI,NCI/ADR-RES ovarian,> 100 µM
same,TGI,OVCAR-5 ovarian,84.6 µM
same,TGI,OVCAR-8 ovarian,> 100 µM
same,TGI,PC-3 prostate,> 100 µM
same,TGI,RPMI-8226 leukemia,> 100 µM
same,TGI,RXF 393 renal,45.8 µM
same,TGI,SF-268 CNS,> 100 µM
same,TGI,SF-295 CNS,> 100 µM
same,TGI,SF-539 CNS,60.3 µM
same,TGI,SK-MEL-2 melanoma,> 100 µM
same,TGI,SK-MEL-28 melanoma,95.4 µM
same,TGI,SK-MEL-5 melanoma,25.8 µM
same,TGI,SK-OV-3 ovarian,22 µM
same,TGI,SN12C renal,> 100 µM
same,TGI,SNB-19 CNS,> 100 µM
same,TGI,SR leukemia,> 100 µM
same,TGI,SW-620 colon,52.2 µM
same,TGI,T-47D breast,56.3 µM
same,TGI,TK-10 renal,> 100 µM
same,TGI,U251 CNS,90 µM
same,TGI,UACC-257 melanoma,> 100 µM
same,TGI,UACC-62 melanoma,28.6 µM
same,TGI,UO-31 renal,50.1 µM
CCOC(=O)c1ccc(C(=O)C(C(C)=O)C(=O)OC(C)(C)C)[nH]1 (configuration not stated),TGI,786-0 renal,> 100 µM
same,TGI,A498 renal,> 100 µM
same,TGI,A549 NSCLC,> 100 µM
same,TGI,ACHN renal,> 100 µM
same,TGI,BT-549 breast,> 100 µM
same,TGI,CAKI-1 renal,> 100 µM
same,TGI,COLO 205 colon,> 100 µM
same,TGI,DU-145 prostate,> 100 µM
same,TGI,EKVX NSCLC,> 100 µM
same,TGI,HCC-2998 colon,> 100 µM
same,TGI,HCT-116 colon,> 100 µM
same,TGI,HCT-15 colon,> 100 µM
same,TGI,HL-60(TB) leukemia,> 100 µM
same,TGI,HOP-62 NSCLC,> 100 µM
same,TGI,HS 578T breast,> 100 µM
same,TGI,HT29 colon,> 100 µM
same,TGI,IGROV1 ovarian,> 100 µM
same,TGI,K-562 leukemia,> 100 µM
same,TGI,KM12 colon,> 100 µM
same,TGI,LOX IMVI melanoma,> 100 µM
same,TGI,M14 melanoma,> 100 µM
same,TGI,MALME-3M melanoma,> 100 µM
same,TGI,MCF7 breast,> 100 µM
same,TGI,MDA-MB-231 breast,> 100 µM
same,TGI,MDA-MB-435,> 100 µM
same,TGI,MDA-N,> 100 µM
same,TGI,MOLT-4 leukemia,> 100 µM
same,TGI,NCI-H226 lung,> 100 µM
same,TGI,NCI-H23 lung,> 100 µM
same,TGI,NCI-H460 lung,> 100 µM
same,TGI,NCI-H522 lung,> 100 µM
same,TGI,NCI/ADR-RES ovarian,> 100 µM
same,TGI,OVCAR-3 ovarian,> 100 µM
same,TGI,OVCAR-4 ovarian,> 100 µM
same,TGI,OVCAR-5 ovarian,> 100 µM
same,TGI,OVCAR-8 ovarian,> 100 µM
same,TGI,PC-3 prostate,> 100 µM
same,TGI,RPMI-8226 leukemia,> 100 µM
same,TGI,RXF 393 renal,> 100 µM
same,TGI,SF-268 CNS,> 100 µM
same,TGI,SF-295 CNS,> 100 µM
same,TGI,SK-MEL-2 melanoma,> 100 µM
same,TGI,SK-MEL-28 melanoma,> 100 µM
same,TGI,SK-MEL-5 melanoma,> 100 µM
same,TGI,SK-OV-3 ovarian,> 100 µM
same,TGI,SN12C renal,> 100 µM
same,TGI,SNB-19 CNS,> 100 µM
same,TGI,SNB-75 CNS,> 100 µM
same,TGI,SR leukemia,> 100 µM
same,TGI,SW-620 colon,> 100 µM
same,TGI,T-47D breast,> 100 µM
same,TGI,U251 CNS,> 100 µM
same,TGI,UACC-62 melanoma,> 100 µM
same,TGI,UO-31 renal,> 100 µM
